The source of these data is publication PMC9704104, “Towards safer anti-inflammatory therapy: synthesis of new thymol–pyrazole hybrids as dual COX-2/5-LOX inhibitors” (Journal of Enzyme Inhibition and Medicinal Chemistry, 2022).

The target of experiment [1] is T1, COX-1 (Ovis aries, UniProt P05979).
T1 construct: purchased Cayman chemicals 560131
T1 sequence (P05979 25-600): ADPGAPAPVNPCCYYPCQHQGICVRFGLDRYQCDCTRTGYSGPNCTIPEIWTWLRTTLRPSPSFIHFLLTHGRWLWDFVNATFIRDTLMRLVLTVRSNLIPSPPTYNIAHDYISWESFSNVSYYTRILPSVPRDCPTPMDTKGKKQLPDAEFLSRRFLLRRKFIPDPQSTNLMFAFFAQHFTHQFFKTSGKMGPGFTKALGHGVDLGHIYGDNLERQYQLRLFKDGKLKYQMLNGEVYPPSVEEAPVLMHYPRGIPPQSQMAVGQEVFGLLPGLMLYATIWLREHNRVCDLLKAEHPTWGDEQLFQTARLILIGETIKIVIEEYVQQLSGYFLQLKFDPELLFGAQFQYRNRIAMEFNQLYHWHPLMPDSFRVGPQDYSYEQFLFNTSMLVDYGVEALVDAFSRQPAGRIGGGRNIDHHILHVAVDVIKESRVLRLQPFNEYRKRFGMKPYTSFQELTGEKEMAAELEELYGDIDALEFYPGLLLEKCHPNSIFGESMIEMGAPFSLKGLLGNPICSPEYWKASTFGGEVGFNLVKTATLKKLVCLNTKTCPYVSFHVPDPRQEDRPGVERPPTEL
Put plainly: In vitro COX-1 inhibitory assay (Cayman colorimetric COX (ovine) inhibitor screening assay kit). The class given is biochemical. The note with it: mean of three replicates ± SD.

Experiment [2] deals with formalin-induced rat paw oedema. Put plainly: Formalin-induced paw oedema test (acute inflammation model). Format: in vivo.

Values joined by “and” are separate entries in the source; they are usually repeats but may differ in a detail not shown here. Equal values may be shown once.

Take `Cc1ccc(C(C)C)c(O)c1C=NNC(=O)c1cc(-c2ccccc2)n(-c2ccccc2)n1` [Compound 8d, N'-(2-Hydroxy-3-isopropyl-6-methylbenzylidene)-1,5-diphenyl-1H-pyrazole-3-carbo-hydrazide]: the IC50 (as a rule, the concentration that inhibits the measured activity by half) in experiment [1] was 10.19 ± 0.036 µM. Besides, the “% Inhibition of oedema volume” value in experiment [2] (4 h, individual rats 1-3, 5 mg/kg orally, 5 mg/kg) was 58.10% and 50.70% and 53.10%. In addition, in experiment [2] (4 h after formalin, individual rats 1-3, 5 mg/kg orally, 5 mg/kg), the “Volume of oedema (ml) 4h” value is 5.95 mL and 6.03 mL and 6.02 mL. In addition, the Abs diff. in experiment [2] (4 h minus 0, individual rats 1-3, 5 mg/kg orally, 5 mg/kg) was 0.93 and 1.07 and 1.0. For the same compound, the “% Relative potency (4h) celecoxib, Mean ± SD” value in experiment [2] (relative to % inhibition of celecoxib at 4 h, group mean ± SD) was 149.0 ± 17.26%. Besides, the “% Relative potency (4h) celecoxib” value in experiment [2] (relative to % inhibition of celecoxib at 4 h, individual rats 1-3) is 165.40% and 131.0% and 150.70%. In addition, the “% Relative potency (4h) diclofenac, Mean ± SD” value in experiment [2] (relative to % inhibition of diclofenac at 4 h, group mean ± SD) was 103.7 ± 16.65%. Further, in experiment [2] (relative to % inhibition of diclofenac at 4 h, individual rats 1-3), the “% Relative potency (4h) diclofenac” value was 122.90% and 93.20% and 95.0%. In experiment [2] (time 0, individual rats 1-3, 5 mg/kg orally, 5 mg/kg), the “Volume of oedema (ml) 0” value was 5.02 mL and 4.96 mL.
